Assay results published in ChEMBL document CHEMBL2163196, “Discovery of small molecules that inhibit melanogenesis via regulation of tyrosinase expression” (Bioorg Med Chem Lett, 2012).
Activity calls are given as the source filed them. The calls are words filed in the database; no cut-off is given here.

Key:
[1] = system: B16-F10; test: Inhibition of alpha-MSH-induced melanogenesis in mouse B16F10 cells after 3 days by spectrophotometric analysis; assay type: functional, cell-based; conditions: for IC50: B16-F10, 72 h
[2] = system: B16-F10; test: Inhibition of alpha-MSH-induced melanogenesis in mouse B16F10 cells at 1 uM after 3 days by spectrophotometric analysis relative to control; assay type: functional; conditions: B16-F10, 72 h
[3] = system: B16-F10; test: Cytotoxicity against mouse alpha-MSH-induced B16F10 cells at 0.31 to 20 uM after 3 days by trypan blue staining; assay type: cell-based; conditions: b16-f10, 72 h
[4] = system: B16-F10; test: Inhibition of alpha-MSH-induced melanogenesis in mouse B16F10 cells at 10 uM after 3 days by spectrophotometric analysis relative to control; assay type: functional; conditions: B16-F10, 72 h
[5] = system: B16-F10; test: Ratio of kojic acid IC50 to compound IC50 for melanogenesis in mouse B16F10 cells; assay type: functional
[6] = Inhibition of tyrosinase
[7] = system: B16-F10; test: Downregulation of tyrosinase in mouse B16F10 cells assessed as tyrosinase protein expression level at 5 uM after 24 hrs by Western blot analysis relative to actin (reference value: 1.6); assay type: functional
[8] = system: B16-F10; test: Downregulation of tyrosinase in mouse B16F10 cells assessed as tyrosinase protein expression level at 5 uM after 48 hrs by Western blot analysis relative to actin (reference value: 1.1); assay type: functional

O=c1cc(CO)occ1O [KOJIC ACID]
IC50 [1]: 84500 nM

COc1ccc(N2CCN(C(=O)c3noc4c3CCCCC4)CC2)cc1
inhibition at 1 µM [2]: 42% | Activity [3]: Non-toxic | inhibition at 10 µM [4]: 92% | inhibition [1]: Dose-dependent effect | IC50 [1]: 670 nM | Ratio IC50 [5]: 126 | inhibition [6]: inactive

O=C(c1noc2c1CCCCC2)N1CCN(c2ccc(O)cc2)CC1
inhibition at 1 µM [2]: 47% | Activity [3]: Non-toxic | inhibition at 10 µM [4]: 89% | inhibition [1]: Dose-dependent effect | IC50 [1]: 1010 nM | Ratio IC50 [5]: 85 | inhibition [6]: inactive

COc1ccc(N2CCCN(C(=O)c3noc4c3CCCCC4)CC2)cc1
inhibition at 10 µM [4]: 30% | inhibition [6]: inactive

O=C(c1noc2c1CCCCC2)N1CCN(c2ccc(Cl)cc2)CC1
inhibition at 10 µM [4]: 7% | inhibition [6]: inactive

CCCOc1ccc(N2CCN(C(=O)c3noc4c3CCCCC4)CC2)cc1
inhibition at 1 µM [2]: 34% | inhibition at 10 µM [4]: 38% | inhibition [6]: inactive

O=C(c1noc2c1CCCCC2)N1CCN(c2ccc3c(c2)OCCO3)CC1
inhibition at 10 µM [4]: < 5% | inhibition [6]: inactive

Cc1ccc(N2CCN(C(=O)c3noc4c3CCCCC4)CC2)cc1
inhibition at 10 µM [4]: < 5% | inhibition [6]: inactive

CCCc1ccc(N2CCCN(C(=O)c3noc4c3CCCCC4)CC2)cc1
inhibition at 1 µM [2]: 15% | inhibition at 10 µM [4]: 95% | inhibition [6]: inactive

CCCc1ccc(N2CCN(C(=O)c3noc4c3CCCCC4)CC2)cc1
inhibition at 1 µM [2]: 21% | inhibition at 10 µM [4]: 56% | inhibition [6]: inactive

CCOc1ccc(N2CCN(C(=O)c3noc4c3CCCCC4)CC2)cc1
inhibition at 1 µM [2]: 47% | Activity [3]: Non-toxic | inhibition at 10 µM [4]: 90% | fold change (FC) [7]: 0.9 | inhibition [1]: Dose-dependent effect | IC50 [1]: 990 nM | Ratio IC50 [5]: 85 | inhibition [6]: inactive | fold change (FC) [8]: 0.7

O=C(c1noc2c1CCCCC2)N1CCN(c2ncccn2)CC1
inhibition at 1 µM [2]: 11% | inhibition at 10 µM [4]: 8% | inhibition [6]: inactive

O=C(c1noc2c1CCCCC2)N1CCN(c2ccc(F)cc2)CC1
inhibition at 10 µM [4]: < 5% | inhibition [6]: inactive

COc1cccc(N2CCN(C(=O)c3noc4c3CCCCC4)CC2)c1
inhibition at 10 µM [4]: < 5% | inhibition [6]: inactive

COc1ccc(CN2CCN(C(=O)c3noc4c3CCCCC4)CC2)cc1
inhibition at 1 µM [2]: < 5% | inhibition at 10 µM [4]: < 5% | inhibition [6]: inactive
